Values after ≈ are worked out from the molar mass of the structure shown. Where two headings read alike, the source gives them in different places.
Legend:
[1] = test system: Escherichia coli AB1157 (WT); assay: Checkerboard MIC assay (antibacterial agent + MBX2319); format: cell-based; details: for MIC: Escherichia coli
From the text: (§1) • Strains and Reagents. The following strains were obtained from the Keio collection (Baba, et al.: Construction of Escherichia coli K-12 in-frame, single-gene knockout mutants: the Keio collection. In Mol Syst Biol, vol. 2, pp. 2006 0008, (2006)): JW0451 (ΔacrB::kan), JW5503 (ΔtolC::kan), JW3234 (ΔacrF::kan), JW2661 (ΔemrB::kan), JW0863 (ΔmacB::kan). The deletion mutations in each of these strains were transferred to AB1157 using P1 phage transduction (see Table 1). The construction of the E. coli cell-based reporter strain (SOS-XXX) that was used for high throughput screening is described in detail in the supplementary information. […] Irgasan was a generous gift from Ciba Speciality Chemicals, Inc. (High Point, N.C.). Hoechst 33342 (H33342) was purchased from Molecular Probes (Eugene, Oreg.). […] Luria Broth (Miller) and agar were purchased as prepared dehydrated media from Becton Dickenson (Franklin Lakes, N.J.). The compound libraries used in high-throughput screens were purchased from Chembridge (San Diego, Calif.), ChemDiv (San Diego, Calif.), and TimTec (Newark, Del.). MBX2319 was synthesized by Microbiotix, Inc. • Antibacterial Activity Assays. The minimal inhibitory concentration (MIC) of antibacterial agents and biocides were determined using the microbroth dilution method essentially as described in the CLSI protocol M7-A7 (CLSI: Method for dilution antimicrobial susceptibility testing for bacteria that grow aerobically; Approved standard-document M7-A7. In Clinical and Laboratory Standards Institute document M7-A7, Clinical and Laboratory Standards Institute, Wayne, Pa., (2006)), with the following exceptions. LB media was used instead of MHB. […] The final concentration of DMSO in each assay was 2%. […] MIC assays were performed in triplicate and the geometric mean was calculated. Checkerboard MIC assays using an EPI and an antibacterial agent were performed essentially as described (Pillai, et al.: Antimicrobial Combinations. In Antibiotics in Laboratory Medicine, ed. by V. Lorian, pp. 365-440, Lippincott Williams & Wilkins, Philadelphia, Pa., (2005)), with the same modifications used for the MIC assays described above. • Time-Kill Assays. Killing curve assays were performed essentially as described (Pillai, et al.: Antimicrobial Combinations. In Antibiotics in Laboratory Medicine, ed. by V. Lorian, pp. 365-440, Lippincott Williams & Wilkins, Philadelphia, Pa., (2005)). Exponential bacterial cultures grown in LB were diluted to a cell density of ˜1×10^7 in LB followed by addition of CIP and/or an EPI. Viability was monitored over 2-4 hours by making serial dilutions in saline and spotting 5 μl of each dilution onto the surface of an LB agar plate in triplicate. Colonies were counted after the plates were incubated at 37° C. for 16-18 hr, colony forming units (CFU) per ml were calculated, and the average and standard deviation for the three replicates was determined. For treatments that decreased CFU/ml below the limit of detection for the spot plating method, the 100 μl samples were diluted into 5 ml LB top agar, were poured onto LB agar plates, and incubated for 18 hr at 37° C. To calculate the fraction of the control for each sample, the average CFU/ml values for treated samples were divided by those from the same sample at 0 h (time=0). Each experiment was repeated at least three times, and a representative experiment is shown. • H33342 Accumulation Assay. The rate of accumulation of the fluorescent dye Hoechst 33342 (H33342), which is a substrate of a wide variety of bacterial efflux pumps (van den Berg van Saparoea, et al., Biochemistry, vol. 44, pp. 16931-16938, (2005)), can be used to estimate the activity of the major efflux pumps in E. coli and many other bacterial species. The H33342 accumulation assay was used to evaluate the effect of EPIs on the activity of the AcrAB-TolC efflux pump in several bacterial species essentially as described (Coldham, et al., J Antimicrob Chemother, vol. 65, pp. 1655-1663, (2010)). […]

[2] = test system: Escherichia coli AB1157 ΔacrB; assay: as above; format: cell-based; details: for MIC: Escherichia coli
From the text: as §1

[3] = test system: Escherichia coli AB1157 ΔacrF; assay: as above; format: cell-based; details: for MIC: Escherichia coli
From the text: as §1

[4] = test system: Escherichia coli AB1157 ΔtolC; assay: as above; format: cell-based; details: for MIC: Escherichia coli
From the text: as §1

[5] = test system: Escherichia coli 285 (AB1157, CIPR, overexpresses efflux); assay: microbe, parasite or virus in culture; format: cell-based; details: for MIC: Escherichia coli
From the text: as §1

[6] = test system: Escherichia coli 287 (AB1157, CIPR, overexpresses efflux); assay: microbe, parasite or virus in culture; format: cell-based; details: for MIC: Escherichia coli
From the text: as §1

[7] = Solubility in phosphate buffers; format: physicochemical; details: phosphate buffer, aqueous buffer, read-out: solubility limit
[8] = test system: Escherichia coli AB1157; assay: microbe, parasite or virus in culture
[9] = read-out: MIC (μg/ml) with MBX2319 at concn (μM) of: 0

CC1(C)Cc2c(C#N)c(SCCc3ccccc3)nc(N3CCOCC3)c2CO1 [MBX2319]
MIC ([1]; MBX2319 alone, strain WT, read-out: MIC (μM) MBX2319): ≥ 100 µM | decrease of the MIC of CIP by MBX2319 ([1]; checkerboard, E. coli AB1157, ciprofloxacin): 2 fold | decrease of the MIC of LEV by MBX2319 ([1]; checkerboard, E. coli AB1157, levofloxacin): 4 fold | decrease of the MIC of PIP by MBX2319 ([1]; checkerboard, E. coli AB1157, piperacillin): 8 fold | MIC ([2]; read-out: MIC (μM) MBX2319): ≥ 100 µM | MIC ([3]; read-out: MIC (μM) MBX2319): ≥ 100 µM | MIC ([4]; read-out: MIC (μM) MBX2319): ≥ 100 µM | potentiation of the antibacterial activity of CIP, LEV, and PIP ([5]; E. coli strain 285): 4-8 fold | MIC ([5]; read-out: MIC (μM) MBX2319): ≥ 100 µM | potentiation of the antibacterial activity of CIP, LEV, and PIP ([6]; E. coli strain 287): 4-8 fold | MIC ([6]; read-out: MIC (μM) MBX2319): ≥ 100 µM | solubility [7]: 15 to 20 µM (≈ 6.14 to 8.19 µg/mL)

CCN1CCN(C(=O)N[C@@H](C(=O)N[C@@H]2C(=O)N3[C@@H]2SC(C)(C)[C@@H]3C(=O)O)c2ccccc2)C(=O)C1=O [Piperacillin, piperacillin]
MIC ([1]; WT, MBX2319 0 μM, read-out: MIC (μg/ml) with MBX2319 at concn (μM) of: 0): 4 µg/mL | MIC (μg/ml) with MBX2319 at concn (μM) of: 1.56 ([1]; WT, MBX2319 1.56 μM): 2 µg/mL | MIC (μg/ml) with MBX2319 at concn (μM) of: 3.13 ([1]; WT, MBX2319 3.13 μM): 1 µg/mL | MIC (μg/ml) with MBX2319 at concn (μM) of: 6.25 ([1]; WT, MBX2319 6.25 μM): 1 µg/mL | MIC (μg/ml) with MBX2319 at concn (μM) of: 25 ([1]; WT, MBX2319 25 μM): 0.5 µg/mL | MIC (μg/ml) with MBX2319 at concn (μM) of: 50 ([1]; WT, MBX2319 50 μM): 0.5 µg/mL | MIC (μg/ml) with MBX2319 at concn (μM) of: 12.5 ([1]; WT, MBX2319 […]): 0.5 µg/mL | MIC ratios mutant ([1]; WT, MIC (WT)/MIC (mutant) in the absence of EPI): 1 | MIC ratios 2319 ([1]; WT, highest ratio of MIC (no compound)/MIC (MBX2319)): 8 | MIC [2, 9]: 0.25 µg/mL | MIC (μg/ml) with MBX2319 at concn (μM) of: 1.56 ([2]; ΔacrB, MBX2319 1.56 μM): 0.125 µg/mL | MIC (μg/ml) with MBX2319 at concn (μM) of: 3.13 ([2]; ΔacrB, MBX2319 3.13 μM): 0.125 µg/mL | MIC (μg/ml) with MBX2319 at concn (μM) of: 6.25 ([2]; ΔacrB, MBX2319 6.25 μM): 0.125 µg/mL | MIC (μg/ml) with MBX2319 at concn (μM) of: 25 ([2]; ΔacrB, MBX2319 25 μM): 0.125 µg/mL | MIC (μg/ml) with MBX2319 at concn (μM) of: 50 ([2]; ΔacrB, MBX2319 50 μM): 0.125 µg/mL | MIC (μg/ml) with MBX2319 at concn (μM) of: 12.5 ([2]; ΔacrB, MBX2319 […]): 0.125 µg/mL | MIC ratios mutant ([2]; ΔacrB, MIC (WT)/MIC (mutant) in the absence of EPI): 16 | MIC ratios 2319 ([2]; ΔacrB, highest ratio of MIC (no compound)/MIC (MBX2319)): 2 | MIC [3, 9]: 4 µg/mL | MIC (μg/ml) with MBX2319 at concn (μM) of: 1.56 ([3]; ΔacrF, MBX2319 1.56 μM): 2 µg/mL | MIC (μg/ml) with MBX2319 at concn (μM) of: 3.13 ([3]; ΔacrF, MBX2319 3.13 μM): 1 µg/mL | MIC (μg/ml) with MBX2319 at concn (μM) of: 6.25 ([3]; ΔacrF, MBX2319 6.25 μM): 0.5 µg/mL | MIC (μg/ml) with MBX2319 at concn (μM) of: 25 ([3]; ΔacrF, MBX2319 25 μM): 0.5 µg/mL | MIC (μg/ml) with MBX2319 at concn (μM) of: 50 ([3]; ΔacrF, MBX2319 50 μM): 0.5 µg/mL | MIC (μg/ml) with MBX2319 at concn (μM) of: 12.5 ([3]; ΔacrF, MBX2319 […]): 0.5 µg/mL | MIC ratios mutant ([3]; ΔacrF, MIC (WT)/MIC (mutant) in the absence of EPI): 1 | MIC ratios 2319 ([3]; ΔacrF, highest ratio of MIC (no compound)/MIC (MBX2319)): 8 | MIC [4, 9]: 0.125 µg/mL | MIC (μg/ml) with MBX2319 at concn (μM) of: 1.56 ([4]; ΔtolC, MBX2319 1.56 μM): 0.125 µg/mL | MIC (μg/ml) with MBX2319 at concn (μM) of: 3.13 ([4]; ΔtolC, MBX2319 3.13 μM): 0.125 µg/mL | MIC (μg/ml) with MBX2319 at concn (μM) of: 6.25 ([4]; ΔtolC, MBX2319 6.25 μM): 0.125 µg/mL | MIC (μg/ml) with MBX2319 at concn (μM) of: 25 ([4]; ΔtolC, MBX2319 25 μM): 0.125 µg/mL | MIC (μg/ml) with MBX2319 at concn (μM) of: 50 ([4]; ΔtolC, MBX2319 50 μM): 0.125 µg/mL | MIC (μg/ml) with MBX2319 at concn (μM) of: 12.5 ([4]; ΔtolC, MBX2319 […]): 0.125 µg/mL | MIC ratios mutant ([4]; ΔtolC, MIC (WT)/MIC (mutant) in the absence of EPI): 32 | MIC ratios 2319 ([4]; ΔtolC, highest ratio of MIC (no compound)/MIC (MBX2319)): 1 | MIC (μg/ml) with MBX2319 at concn (μM) of: 1.56 ([5]; 285, MBX2319 1.56 μM): 4 µg/mL | MIC (μg/ml) with MBX2319 at concn (μM) of: 3.13 ([5]; 285, MBX2319 3.13 μM): 2 µg/mL | MIC (μg/ml) with MBX2319 at concn (μM) of: 6.25 ([5]; 285, MBX2319 6.25 μM): 2 µg/mL | MIC (μg/ml) with MBX2319 at concn (μM) of: 25 ([5]; 285, MBX2319 25 μM): 2 µg/mL | MIC (μg/ml) with MBX2319 at concn (μM) of: 50 ([5]; 285, MBX2319 50 μM): 2 µg/mL | MIC (μg/ml) with MBX2319 at concn (μM) of: 12.5 ([5]; 285, MBX2319 […]): 2 µg/mL | MIC ratios mutant ([5]; 285, MIC (WT)/MIC (mutant) in the absence of EPI): 0.5 | MIC ratios 2319 ([5]; 285, highest ratio of MIC (no compound)/MIC (MBX2319)): 4 | MIC [5, 9]: 8 µg/mL | MIC (μg/ml) with MBX2319 at concn (μM) of: 1.56 ([6]; 287, MBX2319 1.56 μM): 8 µg/mL | MIC (μg/ml) with MBX2319 at concn (μM) of: 3.13 ([6]; 287, MBX2319 3.13 μM): 4 µg/mL | MIC (μg/ml) with MBX2319 at concn (μM) of: 6.25 ([6]; 287, MBX2319 6.25 μM): 4 µg/mL | MIC (μg/ml) with MBX2319 at concn (μM) of: 25 ([6]; 287, MBX2319 25 μM): 2 µg/mL | MIC (μg/ml) with MBX2319 at concn (μM) of: 50 ([6]; 287, MBX2319 50 μM): 2 µg/mL | MIC (μg/ml) with MBX2319 at concn (μM) of: 12.5 ([6]; 287, MBX2319 […]): 2 µg/mL | MIC ratios mutant ([6]; 287, MIC (WT)/MIC (mutant) in the absence of EPI): 0.25 | MIC ratios 2319 ([6]; 287, highest ratio of MIC (no compound)/MIC (MBX2319)): 8 | MIC [6, 9]: 16 µg/mL | MIC [8]: 4 µg/mL (≈ 7.73 µM)

From patent US9540389B2, “Antimicrobial potentiators” (priority 2013, dated 2017)
